Laboratory results from patent US8410112B2, “Compounds useful as inhibitors of ATR kinase” (Vertex Pharmaceuticals Incorporated, priority 2008, dated 2013).

These compounds were tested against T1, full-length ATR (Homo sapiens, UniProt Q13535) (assay: ATR Inhibition Assay (radioactive-phosphate incorporation)). Details: Ki(app); 5 nM full-length ATR, 10 μM ATP, 800 μM target peptide, 25° C.
T1 construct: in the presence of 5 nM full-length ATR
Type: biochemical
Summary of the method: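 Buffer was 50 mM Tris/HCl pH 7.5, 10 mM MgCl2, 1 mM DTT, with 5 nM enzyme, 10 μM [γ-33P]ATP and 800 μM target peptide at 25 °C. Compound was pre-incubated 10 min before ATP start, and the reaction was stopped after 24 h. Phosphocellulose filter capture; Ki(app) came from non-linear regression of background-corrected initial rates.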

T1 sequence (Q13535 whole entry): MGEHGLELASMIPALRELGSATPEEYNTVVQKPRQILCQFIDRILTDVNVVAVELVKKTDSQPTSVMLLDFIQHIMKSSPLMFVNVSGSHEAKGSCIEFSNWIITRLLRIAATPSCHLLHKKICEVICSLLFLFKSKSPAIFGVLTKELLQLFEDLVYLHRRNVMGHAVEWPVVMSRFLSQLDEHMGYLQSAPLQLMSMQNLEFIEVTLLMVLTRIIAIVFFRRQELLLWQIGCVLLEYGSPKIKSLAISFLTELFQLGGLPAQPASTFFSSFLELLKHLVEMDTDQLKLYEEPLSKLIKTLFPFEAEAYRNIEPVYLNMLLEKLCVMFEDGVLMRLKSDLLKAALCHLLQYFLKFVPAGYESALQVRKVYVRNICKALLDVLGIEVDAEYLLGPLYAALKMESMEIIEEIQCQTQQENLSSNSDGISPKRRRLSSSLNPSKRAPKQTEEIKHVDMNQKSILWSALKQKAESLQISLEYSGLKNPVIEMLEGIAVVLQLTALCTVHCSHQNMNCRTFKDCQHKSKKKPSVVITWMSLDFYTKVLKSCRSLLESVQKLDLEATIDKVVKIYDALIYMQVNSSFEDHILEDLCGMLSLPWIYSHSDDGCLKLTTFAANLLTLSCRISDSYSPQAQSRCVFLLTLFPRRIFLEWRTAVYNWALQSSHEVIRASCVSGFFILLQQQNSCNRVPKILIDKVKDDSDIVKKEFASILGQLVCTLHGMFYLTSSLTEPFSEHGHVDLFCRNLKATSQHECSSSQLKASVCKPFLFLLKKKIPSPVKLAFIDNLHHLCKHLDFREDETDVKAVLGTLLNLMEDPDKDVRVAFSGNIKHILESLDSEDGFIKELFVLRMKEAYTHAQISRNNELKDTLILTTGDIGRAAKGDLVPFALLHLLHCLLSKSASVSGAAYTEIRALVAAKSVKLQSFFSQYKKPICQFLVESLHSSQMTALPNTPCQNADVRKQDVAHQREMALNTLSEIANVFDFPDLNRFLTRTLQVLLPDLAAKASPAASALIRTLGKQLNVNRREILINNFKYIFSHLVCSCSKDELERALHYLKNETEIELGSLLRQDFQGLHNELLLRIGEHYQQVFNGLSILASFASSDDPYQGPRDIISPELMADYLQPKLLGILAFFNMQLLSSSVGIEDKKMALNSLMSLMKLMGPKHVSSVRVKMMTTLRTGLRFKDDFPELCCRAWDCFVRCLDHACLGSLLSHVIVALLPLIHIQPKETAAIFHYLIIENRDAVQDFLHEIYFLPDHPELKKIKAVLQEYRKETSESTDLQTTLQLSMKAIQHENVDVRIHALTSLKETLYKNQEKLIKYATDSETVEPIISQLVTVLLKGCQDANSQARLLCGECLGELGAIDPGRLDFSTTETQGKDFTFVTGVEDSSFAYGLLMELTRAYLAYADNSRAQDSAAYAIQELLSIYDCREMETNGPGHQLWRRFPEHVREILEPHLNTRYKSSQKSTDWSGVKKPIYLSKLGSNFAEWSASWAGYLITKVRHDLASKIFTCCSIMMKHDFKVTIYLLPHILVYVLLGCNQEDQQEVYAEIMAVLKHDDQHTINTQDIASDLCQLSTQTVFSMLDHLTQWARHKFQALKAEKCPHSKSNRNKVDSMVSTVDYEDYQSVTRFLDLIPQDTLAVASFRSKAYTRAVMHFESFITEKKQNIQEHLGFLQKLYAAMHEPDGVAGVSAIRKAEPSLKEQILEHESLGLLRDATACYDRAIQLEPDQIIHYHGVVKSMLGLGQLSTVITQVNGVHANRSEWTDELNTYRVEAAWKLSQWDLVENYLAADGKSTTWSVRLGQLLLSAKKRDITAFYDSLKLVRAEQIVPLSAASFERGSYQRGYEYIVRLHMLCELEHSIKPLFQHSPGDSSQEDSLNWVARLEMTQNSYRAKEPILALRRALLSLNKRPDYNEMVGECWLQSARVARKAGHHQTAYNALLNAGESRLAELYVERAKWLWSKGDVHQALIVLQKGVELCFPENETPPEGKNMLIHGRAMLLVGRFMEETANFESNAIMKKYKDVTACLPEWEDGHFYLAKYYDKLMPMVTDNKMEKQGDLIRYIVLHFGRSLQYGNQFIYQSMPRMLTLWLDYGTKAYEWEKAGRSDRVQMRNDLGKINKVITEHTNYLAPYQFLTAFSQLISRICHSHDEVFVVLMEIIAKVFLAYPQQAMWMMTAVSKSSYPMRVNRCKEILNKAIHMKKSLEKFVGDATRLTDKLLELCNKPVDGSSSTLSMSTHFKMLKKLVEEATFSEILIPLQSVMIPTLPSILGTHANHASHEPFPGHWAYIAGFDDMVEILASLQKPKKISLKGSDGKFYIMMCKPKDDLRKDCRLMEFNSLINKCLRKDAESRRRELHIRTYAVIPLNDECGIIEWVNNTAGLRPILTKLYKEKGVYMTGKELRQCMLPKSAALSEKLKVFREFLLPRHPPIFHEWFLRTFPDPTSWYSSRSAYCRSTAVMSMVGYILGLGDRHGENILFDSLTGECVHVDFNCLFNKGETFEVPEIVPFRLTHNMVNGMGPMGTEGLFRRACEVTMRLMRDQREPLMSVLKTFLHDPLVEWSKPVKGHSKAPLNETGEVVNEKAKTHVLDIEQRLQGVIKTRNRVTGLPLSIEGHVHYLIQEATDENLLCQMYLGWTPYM

Row | SMILES | Ki [nM]
1 | Nc1ncc(C2=CCN(C(=O)COc3ccccc3)CC2)nc1-c1nnc(-c2ccccc2)o1 [Compound I-126, 1-(4-(5-amino-6-(5-phenyl-1,3,4-oxadiazol-2-yl)pyrazin-2-yl)-5,6-dihydropyridin-1(2H)-yl)-2-phenoxyethanone] | < 100
2 | Nc1ncc(C2=CCN(C(=O)C3CCCC3)CC2)nc1-c1nnc(-c2ccccc2)o1 [Compound I-127, (4-(5-amino-6-(5-phenyl-1,3,4-oxadiazol-2-yl)pyrazin-2-yl)-5,6-dihydropyridin-1(2H)-yl)(cyclopentyl)methanone] | < 100
3 | Nc1ncc(C2=CCN(C(=O)C3CCC3)CC2)nc1-c1nnc(-c2ccccc2)o1 [Compound I-128, (4-(5-amino-6-(5-phenyl-1,3,4-oxadiazol-2-yl)pyrazin-2-yl)-5,6-dihydropyridin-1(2H)-yl)(cyclobutyl)methanone] | < 100
4 | Nc1ncc(C2=CCN(C(=O)c3cccnc3)CC2)nc1-c1nnc(-c2ccccc2)o1 [Compound I-129, (4-(5-amino-6-(5-phenyl-1,3,4-oxadiazol-2-yl)pyrazin-2-yl)-5,6-dihydropyridin-1(2H)-yl)(pyridin-3-yl)methanone] | < 100
5 | COCC(=O)N1CC=C(c2cnc(N)c(-c3nnc(-c4ccccc4)o3)n2)CC1 [Compound I-130, 1-(4-(5-amino-6-(5-phenyl-1,3,4-oxadiazol-2-yl)pyrazin-2-yl)-5,6-dihydropyridin-1(2H)-yl)-2-methoxyethanone] | < 100
6 | CCC(CC)C(=O)N1CC=C(c2cnc(N)c(-c3nnc(-c4ccccc4)o3)n2)CC1 [Compound I-131, 1-(4-(5-amino-6-(5-phenyl-1,3,4-oxadiazol-2-yl)pyrazin-2-yl)-5,6-dihydropyridin-1(2H)-yl)-2-ethylbutan-1-one] | < 100
7 | Nc1ncc(C2=CCN(C(=O)c3ccccn3)CC2)nc1-c1nnc(-c2ccccc2)o1 [Compound I-132, (4-(5-amino-6-(5-phenyl-1,3,4-oxadiazol-2-yl)pyrazin-2-yl)-5,6-dihydropyridin-1(2H)-yl)(pyridin-2-yl)methanone] | < 100
8 | Nc1ncc(C2=CCN(C(=O)c3c(F)cccc3F)CC2)nc1-c1nnc(-c2ccccc2)o1 [Compound I-133, (4-(5-amino-6-(5-phenyl-1,3,4-oxadiazol-2-yl)pyrazin-2-yl)-5,6-dihydropyridin-1(2H)-yl)(2,6-difluorophenyl)methanone] | < 100
9 | CN(C)CC(=O)N1CC=C(c2cnc(N)c(-c3nnc(-c4ccccc4)o3)n2)CC1 [Compound I-134, 1-(4-(5-amino-6-(5-phenyl-1,3,4-oxadiazol-2-yl)pyrazin-2-yl)-5,6-dihydropyridin-1(2H)-yl)-2-(dimethylamino)ethanone] | 100 to 1000
10 | COCCOCC(=O)N1CC=C(c2cnc(N)c(-c3nnc(-c4ccccc4)o3)n2)CC1 [Compound I-135, 1-(4-(5-amino-6-(5-phenyl-1,3,4-oxadiazol-2-yl)pyrazin-2-yl)-5,6-dihydropyridin-1(2H)-yl)-2-(2-methoxyethoxy)ethanone] | < 100
11 | CC(=O)N1CC=C(c2cnc(N)c(-c3nc4ccccc4[nH]3)n2)CC1 [Compound I-136, 1-(4-(5-amino-6-(1H-benzo[d]imidazol-2-yl)pyrazin-2-yl)-5,6-dihydropyridin-1(2H)-yl)ethanone] | < 100
12 | Nc1ncc(C2=CCN(C(=O)COc3ccccc3)CC2)nc1-c1nc2ccccc2[nH]1 [Compound I-137, 1-(4-(5-amino-6-(1H-benzo[d]imidazol-2-yl)pyrazin-2-yl)-5,6-dihydropyridin-1(2H)-yl)-2-phenoxyethanone] | 100 to 1000
13 | COCC(=O)N1CC=C(c2cnc(N)c(-c3nc4ccccc4[nH]3)n2)CC1 [Compound I-138, 1-(4-(5-amino-6-(1H-benzo[d]imidazol-2-yl)pyrazin-2-yl)-5,6-dihydropyridin-1(2H)-yl)-2-methoxyethanone] | < 100
14 | Nc1ncc(C2=CCN(C(=O)c3ccccn3)CC2)nc1-c1nc2ccccc2[nH]1 [Compound I-139, (4-(5-amino-6-(1H-benzo[d]imidazol-2-yl)pyrazin-2-yl)-5,6-dihydropyridin-1(2H)-yl)(pyridin-2-yl)methanone] | < 100
15 | COCCOCC(=O)N1CC=C(c2cnc(N)c(-c3nc4ccccc4[nH]3)n2)CC1 [Compound I-140, 1-(4-(5-amino-6-(1H-benzo[d]imidazol-2-yl)pyrazin-2-yl)-5,6-dihydropyridin-1(2H)-yl)-2-(2-methoxyethoxy)ethanone] | 100 to 1000
16 | Nc1ncc(N2CCN(C(=O)Cc3ccccc3)CC2)nc1C(=O)Nc1ccccn1 [Compound I-141, 3-amino-6-(4-(2-phenylethanoyl)piperazin-1-yl)-N-(pyridin-2-yl)pyrazine-2-carboxamide] | 1000 to 10000
17 | CC(=O)N1CCN(c2cnc(N)c(C(=O)Nc3ccccn3)n2)CC1 [Compound I-142, 3-amino-6-(4-ethanoylpiperazin-1-yl)-N-(pyridin-2-yl)pyrazine-2-carboxamide] | 1000 to 10000
18 | Nc1ncc(N2CCN(C(=O)COc3ccccc3)CC2)nc1C(=O)Nc1ccccn1 [Compound I-143, 3-amino-6-(4-(2-phenoxyethanoyl)piperazin-1-yl)-N-(pyridin-2-yl)pyrazine-2-carboxamide] | 1000 to 10000

Row | SMILES | Ki [nM]
19 | Nc1ncc(N2CCN(C(=O)C3CCCC3)CC2)nc1C(=O)Nc1ccccn1 [Compound I-144, 3-amino-6-(4-(cyclopentanecarbonyl)piperazin-1-yl)-N-(pyridin-2-yl)pyrazine-2-carboxamide] | 100 to 1000
20 | Nc1ncc(N2CCN(C(=O)C3CCC3)CC2)nc1C(=O)Nc1ccccn1 [Compound I-145, 3-amino-6-(4-(cyclobutanecarbonyl)piperazin-1-yl)-N-(pyridin-2-yl)pyrazine-2-carboxamide] | 100 to 1000
21 | Nc1ncc(N2CCN(C(=O)c3cccnc3)CC2)nc1C(=O)Nc1ccccn1 [Compound I-146, 3-amino-N-(pyridin-2-yl)-6-(4-(pyridine-3-carbonyl)piperazin-1-yl)pyrazine-2-carboxamide] | 1000 to 10000
22 | COCC(=O)N1CCN(c2cnc(N)c(C(=O)Nc3ccccn3)n2)CC1 [Compound I-147, 3-amino-6-(4-(2-methoxyethanoyl)piperazin-1-yl)-N-(pyridin-2-yl)pyrazine-2-carboxamide] | 1000 to 10000
23 | Nc1ncc(N2CCN(C(=O)c3ccccn3)CC2)nc1C(=O)Nc1ccccn1 [Compound I-148, 3-amino-N-(pyridin-2-yl)-6-(4-(pyridine-2-carbonyl)piperazin-1-yl)pyrazine-2-carboxamide] | 1000 to 10000
24 | Nc1ncc(N2CCN(C(=O)c3c(F)cccc3F)CC2)nc1C(=O)Nc1ccccn1 [Compound I-149, 3-amino-6-(4-(2,6-difluorophenylcarbonyl)piperazin-1-yl)-N-(pyridin-2-yl)pyrazine-2-carboxamide] | 100 to 1000
25 | CN(C)CC(=O)N1CCN(c2cnc(N)c(C(=O)Nc3ccccn3)n2)CC1 [Compound I-150, 3-amino-6-(4-(2-(dimethylamino)ethanoyl)piperazin-1-yl)-N-(pyridin-2-yl)pyrazine-2-carboxamide] | 1000 to 10000
26 | COCCOCC(=O)N1CCN(c2cnc(N)c(C(=O)Nc3ccccn3)n2)CC1 [Compound I-151, 3-amino-6-(4-(2-(2-methoxyethoxy)ethanoyl)piperazin-1-yl)-N-(pyridin-2-yl)pyrazine-2-carboxamide] | 1000 to 10000
27 | CCS(=O)(=O)N1CC=C(c2cnc(N)c(-c3nc4ccc(C)c(C)c4[nH]3)n2)CC1 [Compound I-152, 3-(6,7-dimethyl-1H-benzo[d]imidazol-2-yl)-5-(1-(ethylsulfonyl)-1,2,3,6-tetrahydropyridin-4-yl)pyrazin-2-amine] | 100 to 1000
28 | CCS(=O)(=O)N1CC=C(c2cnc(N)c(-c3nc4ccc(F)c(F)c4[nH]3)n2)CC1 [Compound I-153, 3-(6,7-difluoro-1H-benzo[d]imidazol-2-yl)-5-(1-(ethylsulfonyl)-1,2,3,6-tetrahydropyridin-4-yl)pyrazin-2-amine] | < 100
29 | CCS(=O)(=O)N1CC=C(c2cnc(N)c(-c3nc4cc(C)c(C)cc4[nH]3)n2)CC1 [Compound I-154, 3-(5,6-dimethyl-1H-benzo[d]imidazol-2-yl)-5-(1-(ethylsulfonyl)-1,2,3,6-tetrahydropyridin-4-yl)pyrazin-2-amine] | 100 to 1000
30 | CCS(=O)(=O)N1CC=C(c2cnc(N)c(-c3nc4c(F)cccc4[nH]3)n2)CC1 [Compound I-155, 5-(1-(ethylsulfonyl)-1,2,3,6-tetrahydropyridin-4-yl)-3-(4-fluoro-1H-benzo[d]imidazol-2-yl)pyrazin-2-amine] | < 100
31 | CCS(=O)(=O)N1CC=C(c2cnc(N)c(-c3nc4cc(C(C)(C)C)ccc4[nH]3)n2)CC1 [Compound I-156, 3-(5-tert-butyl-1H-benzo[d]imidazol-2-yl)-5-(1-(ethylsulfonyl)-1,2,3,6-tetrahydropyridin-4-yl)pyrazin-2-amine] | 1000 to 10000
32 | CCS(=O)(=O)N1CC=C(c2cnc(N)c(-c3nc4cc(C)ccc4[nH]3)n2)CC1 [Compound I-157, 5-(1-(ethylsulfonyl)-1,2,3,6-tetrahydropyridin-4-yl)-3-(5-methyl-1H-benzo[d]imidazol-2-yl)pyrazin-2-amine] | < 100
33 | CCS(=O)(=O)N1CC2CN(c3cnc(N)c(-c4nc5ccc(C)cc5[nH]4)n3)CC2C1 (centres unmarked) [Compound I-158, 5-(5-(ethylsulfonyl)hexahydropyrrolo[3,4-c]pyrrol-2(1H)-yl)-3-(6-methyl-1H-benzo[d]imidazol-2-yl)pyrazin-2-amine] | 100 to 1000
34 | Nc1ncc(C2=CCN(c3ccccc3)CC2)nc1-c1nc2ccccc2[nH]1 [Compound I-159, 3-(1H-benzo[d]imidazol-2-yl)-5-(1-phenyl-1,2,3,6-tetrahydropyridin-4-yl)pyrazin-2-amine] | 100 to 1000
35 | CCS(=O)(=O)N1CCN(c2cnc(N)c(-c3cn(-c4ccc(N)cc4)nn3)n2)CC1 [Compound I-160, 3-(1-(4-aminophenyl)-1H-1,2,3-triazol-4-yl)-5-(4-(ethylsulfonyl)piperazin-1-yl)pyrazin-2-amine] | 100 to 1000
